According to the supplement of paper PMC10949913:
Counter-ions that a name gives are not always drawn.

Key:
CU-ACC1 = assay: ExcessHSA synergy score with TAK-243; higher = less synergy (negative = synergistic); conditions: combined with: TAK-243 (MLN-7243) matrix, 9-point 1:2 dilution
Description: (§1)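 Each drug was tested at 9 points with 1:2 dilution; viability was read by CellTiter-Glo as in the single-agent screen. Synergy is scored as ExcessHSA (sum of excess over highest single agent; negative = synergy) and the Beta interaction parameter (<1 synergy).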

NCI-H295R = assay: as above; conditions: combined with: TAK-243 (MLN-7243) matrix, 9-point 1:2 dilution
Description: as §1

Row | SMILES | ExcessHSA synergy score with TAK-243 (CU-ACC1) | ExcessHSA synergy score with TAK-243 (NCI-H295R)
1 | Cc1cc2c(C(N)=O)cccc2n1-c1nc2c(c(NCc3ccccc3)n1)COCC2 [CB-5083] | -143 | 71.1
2 | COC1CCC(n2c([C@@H]3CCCC(=O)N3c3ccc(F)c(F)c3)nc3cc(-c4c(C)noc4C)ccc32)CC1 (some centres not stated) [CBP/p300-IN-4] | -96.9 | -244
3 | C=CCNc1nc(N)c(C(=O)c2ccc(F)s2)s1 [TT-10] | 584 | 922
4 | CCN(C(=O)c1cc(F)ccc1Oc1cncnc1N1CC2(CCN(C[C@H]3CC[C@H](NS(=O)(=O)CC)CC3)CC2)C1)C(C)C [SNDX-5613] | -82.8 | 50
5 | CN(Cc1cnc2nc(N)nc(N)c2n1)c1ccc(C(=O)N[C@@H](CCC(=O)O)C(=O)O)cc1 [Methotrexate] | 544 | 591
6 | Cc1cc(F)c(C(=O)Nc2cccc(-c3nncn3C(C)C)n2)cc1-n1cnc(C2CC2)c1 [Selonsertib] | 496 | 231
7 | C[C@@H]1CN(Cc2ccc(F)cc2)[C@@H](C)CN1C(=O)c1cc2c(C(=O)C(=O)N(C)C)cn(C)c2cc1Cl [Talmapimod] | 218 | 657
8 | CO[C@H]1/C=C/C[C@H](C)[C@@H](C)S(=O)(=O)NC(=O)c2ccc3c(c2)N(C[C@@H]2CC[C@H]21)C[C@@]1(CCCc2cc(Cl)ccc21)CO3 [AMG-176] | -10.7 | -202
9 | CO[C@H]1C(=O)[C@]2(C)[C@@H](OC)C[C@H]3OC[C@@]3(OC(C)=O)[C@H]2[C@H](OC(=O)c2ccccc2)[C@]2(O)C[C@H](OC(=O)[C@H](O)[C@@H](NC(=O)OC(C)(C)C)c3ccccc3)C(C)=C1C2(C)C [Cabazitaxel] | 396 | -364
10 | O=C(Nc1ccnc(C(F)(F)F)c1)c1cnn(-c2cccc3c(=O)[nH]ccc23)c1C(F)(F)F | -300 | -544
11 | O=C(c1cc(Cc2n[nH]c(=O)c3ccccc23)ccc1F)N1CCN(C(=O)C2CC2)CC1 [Olaparib] | 468 | 859
12 | CNCc1ccc(-c2cc(-c3nc(-c4ccc(S(=O)(=O)C(C)C)cc4)cnc3N)on2)cc1 [Berzosertib] | -219 | 144
13 | Cc1cc(Oc2ccc3nc(COc4ccc(CC5SC(=O)NC5=O)cc4)n(C)c3c2)cc(C)c1N (configuration not stated) [Efatutazone] | -278 | -69.9
14 | Nc1nc(NC2CC2)cc(-c2cccc(Cl)c2Cl)n1 [TH588] | -251 | -172
15 | CC(C)c1cc(-c2n[nH]c(=O)n2-c2ccc3c(ccn3C)c2)c(O)cc1O [Ganetespib (STA-9090)] | 400 | -59.8
16 | C=CC(=O)N1CC/C(=C\c2ccc(F)c([N+](=O)[O-])c2)C(=O)/C(=C/c2ccc(F)c([N+](=O)[O-])c2)C1 [VLX-1570] | 79.8 | -147
17 | CN1C(=O)[C@@H](NC(=O)c2n[nH]c(Cc3ccccc3)n2)COc2ccccc21 | 359 | 714
18 | CCOC(=O)[C@@H](N)CCC(=O)N[C@@H](CSCc1ccccc1)C(=O)N[C@@H](C(=O)OCC)c1ccccc1 [Ezatiostat] | -271 | -222
19 | Cc1[nH]c2ccccc2c1CCNCc1ccc(/C=C/C(=O)NO)cc1 [Panobinostat] | 181 | -23.3
20 | NS(=O)(=O)OC[C@@H]1C[C@@H](n2ccc3c(N[C@H]4CCc5ccccc54)ncnc32)C[C@@H]1O [MLN-4924] | -111 | -344
21 | Cc1nc2ccc(F)cc2n1-c1nc(N)c(F)c(Nc2ccc(C(F)(F)F)cc2)n1 [PTC596] | -119 | -3.1
22 | CC(C)n1c(=O)n(C)c2cnc3cc(F)c(-c4ccc(OCCCN5CCCCC5)nc4)cc3c21 [AZD-1390] | 697 | 286
23 | O=C(N[C@@H](Cc1coc2ccccc12)B(O)O)[C@@H]1C[C@H]2CC[C@@H]1O2 [LMP7-IN-1] | -335 | -55.7
24 | COc1ccc(C(=O)N2CCN(c3ccc4c(c3)CCC(=O)N4)CC2)cc1OC [Vesnarinone] | 628 | 706
25 | CCCCCCCCc1ccc(CCC(N)(CO)CO)cc1 [Fingolimod hydrochloride] | -48.2 | 127
26 | NCCCC[C@H](NC(=O)[C@@H](NC(=O)[C@H](Cc1c[nH]c2ccccc12)NC(=O)[C@H](CCCCN)NC(=O)[C@H](CCCCN)NC(=O)[C@H](Cc1c[nH]c2ccccc12)NC(=O)[C@H](Cc1c[nH]c2ccccc12)NC(=O)[C@H](CCCCN)NC(=O)[C@@H](N)CCCCN)C(c1ccccc1)c1ccccc1)C(N)=O [Oncopore] | 401 | 391
